Data published in publication PMC10518257 (Nature Cancer, 2023).
Several values for one entry are separate records, joined by “and”; a condition that tells them apart may be missing. Equal values may be shown once.

How the values were obtained:
HBECp53-EV cells = assay: Growth inhibition (alamarBlue, 96 h); type: cell-based, human; conditions: for raw viability signal (Source Data Fig. 3b-c): HBEC-EV, replicate sets
[1] = Animal weight of tumor-bearing mice; conditions: for Animal Weight (g), Mean: Ba/F3-KIF5B::RET tumor-bearing mice (Ext. Data Fig 8i); for Animal Weight: individual animals

For `CO[C@]1(C(=O)N[C@@H](C)c2ccc(-n3cc(F)cn3)nc2)CC[C@H](c2nc(C)cc(Nc3cc(C)[nH]n3)n2)CC1` [Pralsetinib], the “raw viability signal (Source Data Fig. 3b-c)” value (shortened to “raw viability signal”) (HBECp53-EV cells; 0.01 nM) was 18620.9 (2×) and 26084.1 and 32208.8, the “raw viability signal” value (HBECp53-EV cells; 0.1 nM) was 18754 (2×) and 26388.7 and 34047.4 and the “raw viability signal” value (HBECp53-EV cells; 1 nM) was 20833.4 (2×) and 23057.6 and 32620.9. The “raw viability signal” value (HBECp53-EV cells; 10 nM) was 19432.8 (2×) and 24252.3 and 33045.2, the “raw viability signal” value (HBECp53-EV cells; 100 nM) was 20060.8 (2×) and 26236.5 and 33461.6 and the “raw viability signal” value (HBECp53-EV cells; 1000 nM) was 13712.5 (2×) and 19031.7 and 36040.1. For the same compound, the “raw viability signal” value (HBECp53-EV cells; 10000 nM) was 6305.27 (2×) and 11469.7 and 22649.7, the IC50 (HBECp53-EV cells; Homo sapiens, 96 h, read-out: IC50 for Inhibition of Growth (95% CI)) was 6.9 µM and the “Animal Weight, Mean” value ([1]; Ba/F3-KIF5B::RET G810R (Fig 8f), Pralsetinib 10 mg/kg BID, day 1) was 26.74 g. For the same compound, the “Animal Weight, Mean” value ([1]; Ba/F3-KIF5B::RET G810R (Fig 8f), Pralsetinib 10 mg/kg BID, day 4) was 26.42 g, the “Animal Weight, Mean” value ([1]; Ba/F3-KIF5B::RET G810R (Fig 8f), Pralsetinib 10 mg/kg BID, day 8) was 25.72 g and the “Animal Weight, Mean” value ([1]; Ba/F3-KIF5B::RET G810R (Fig 8f), Pralsetinib 10 mg/kg BID, day 11) was 26.48 g. For the same compound, the “Animal Weight, Mean” value ([1]; Ba/F3-KIF5B::RET G810R (Fig 8f), Pralsetinib 10 mg/kg BID, day 15) was 26.66 g, the “Animal Weight, Mean” value ([1]; Ba/F3-KIF5B::RET G810R (Fig 8g), Pralsetinib 30 mg/kg BID, day 1) was 25.3 g and the “Animal Weight, Mean” value ([1]; Ba/F3-KIF5B::RET G810R (Fig 8g), Pralsetinib 30 mg/kg BID, day 4) was 26.8 g. For the same compound, the “Animal Weight, Mean” value ([1]; Ba/F3-KIF5B::RET G810R (Fig 8g), Pralsetinib 30 mg/kg BID, day 8) was 26.6 g, the “Animal Weight, Mean” value ([1]; Ba/F3-KIF5B::RET G810R (Fig 8g), Pralsetinib 30 mg/kg BID, day 11) was 25.3 g and the “Animal Weight, Mean” value ([1]; Ba/F3-KIF5B::RET G810R (Fig 8g), Pralsetinib 30 mg/kg BID, day 15) was 26.0 g. For the same compound, the “Animal Weight (g), Mean” value ([1]; 3 mg/kg BID, day 1) was 26.4 g, the “Animal Weight (g), Mean” value ([1]; 3 mg/kg BID, day 4) was 26.5 g and the “Animal Weight (g), Mean” value ([1]; 3 mg/kg BID, day 8) was 26.3 g. For the same compound, the “Animal Weight (g), Mean” value ([1]; 3 mg/kg BID, day 11) was 27.3 g, the “Animal Weight (g), Mean” value ([1]; 3 mg/kg BID, day 15) was 27.9 g and the “Animal Weight (g), Mean” value ([1]; 10 mg/kg BID, day 1) was 26.2 g. The “Animal Weight (g), Mean” value ([1]; 10 mg/kg BID, day 4) was 26.8 g, the “Animal Weight (g), Mean” value ([1]; 10 mg/kg BID, day 8) was 26.6 g and the “Animal Weight (g), Mean” value ([1]; 10 mg/kg BID, day 11) was 26.8 g. For the same compound, the “Animal Weight (g), Mean” value ([1]; 10 mg/kg BID, day 15) was 27.7 g, the “Animal Weight (g), Mean” value ([1]; 30 mg/kg BID, day 1) was 26.2 g and the “Animal Weight (g), Mean” value ([1]; 30 mg/kg BID, day 4) was 26.3 g. For the same compound, the “Animal Weight (g), Mean” value ([1]; 30 mg/kg BID, day 8) was 25.8 g, the “Animal Weight (g), Mean” value ([1]; 30 mg/kg BID, day 11) was 26.9 g and the “Animal Weight (g), Mean” value ([1]; 30 mg/kg BID, day 15) was 27.4 g. The “Animal Weight (g), Mean” value ([1]; 60 mg/kg BID, day 1) was 25.8 g, the “Animal Weight (g), Mean” value ([1]; 60 mg/kg BID, day 4) was 25.8 g and the “Animal Weight (g), Mean” value ([1]; 60 mg/kg BID, day 8) was 25.6 g. The “Animal Weight (g), Mean” value ([1]; 60 mg/kg BID, day 11) was 26.0 g, the “Animal Weight (g), Mean” value ([1]; 60 mg/kg BID, day 15) was 26.0 g and the “Animal Weight” value ([1]; LUAD-0077AS1 PDX, Pralsetinib 30 mg/kg BID, treatment day 0) was 23 g (2×) and 26 g (2×) and 21 g (2×) and 24 g and 25 g (2×) and 22 g. For the same compound, the “Animal Weight” value ([1]; LUAD-0077AS1 PDX, Pralsetinib 30 mg/kg BID, treatment day 4) was 26 g (2×) and 23 g and 21 g (2×) and 24 g (2×) and 25 g (2×) and 22 g, the “Animal Weight” value ([1]; LUAD-0077AS1 PDX, Pralsetinib 30 mg/kg BID, treatment day 7) was 26 g (2×) and 23 g and 21 g and 22 g (2×) and 25 g (2×) and 27 g and 24 g and the “Animal Weight” value ([1]; LUAD-0087AS2 PDX, Pralsetinib 30 mg/kg BID, treatment day 0) was 28 g and 27 g (2×) and 23 g and 26 g. The “Animal Weight” value ([1]; LUAD-0087AS2 PDX, Pralsetinib 30 mg/kg BID, treatment day 3) was 28 g and 27 g and 26 g and 24 g (2×), the “Animal Weight” value ([1]; LUAD-0087AS2 PDX, Pralsetinib 30 mg/kg BID, treatment day 7) was 28 g and 26 g (2×) and 24 g and 25 g and the “Animal Weight” value ([1]; LUAD-0087AS2 PDX, Pralsetinib 30 mg/kg BID, treatment day 10) was 28 g and 27 g and 26 g and 25 g (2×). The “Animal Weight” value ([1]; LUAD-0087AS2 PDX, Pralsetinib 30 mg/kg BID, treatment day 14) was 29 g and 27 g and 26 g and 25 g (2×), the “Animal Weight” value ([1]; LUAD-0087AS2 PDX, Pralsetinib 30 mg/kg BID, treatment day 17) was 29 g and 25 g (3×) and 26 g and the “Animal Weight” value ([1]; LUAD-0087AS2 PDX, Pralsetinib 30 mg/kg BID, treatment day 21) was 28 g and 24 g and 25 g (2×) and 26 g. For the same compound, the “Animal Weight” value ([1]; LUAD-0087AS2 PDX, Pralsetinib 30 mg/kg BID, treatment day 24) was 28 g and 25 g (3×) and 26 g and the “Animal Weight” value ([1]; LUAD-0087AS2 PDX, Pralsetinib 30 mg/kg BID, treatment day 29) was 28 g and 25 g (3×) and 26 g.
